# Measurements reported in patent US20240027453A1, “METHOD FOR DETECTION AND QUANTITATIVE MONITORING OF INFECTIONS WITH HERPESVIRUSES” (The Trustees of Princeton University, priority 2020, published 2024).
# Where two headings read alike, the source gives them in different places.
# Test system: HCMV
# Assay type: cell-based
# Experimental: In example herpesvirus PRM assay methods shown herein, cell pellets were lysed in 2% SDS, 100 mM NaCl, 0.5 mM EDTA, 50 mM Tris, pH 8.2, and 50 μg of protein was reduced and alkylated with 25 mM TCEP and 50 mM CAM respectively for 20 min at 70° C. Proteins were then precipitated via methanol chloroform precipitation (Wessel & Flugg, Anal Biochem. 138(1):141-143, 1984), resuspended in 50 mM HEPES, pH 8.2 and digested overnight with trypsin (50:1 protein:enzyme w/w ratio). Digested peptides were desalted by SDB-RPS StageTip as previously described (Lum et al., Cell Syst., 7(6):[…], 2018; Greco et al., Methods Mol Biol 1410:39-63, 2016; Federspiel & Cristea, Methods Mol Biol., 1977:115-143, 2019).
# Peptides (1.0 μg on column) were analyzed by LC-MS/MS using a Dionex Ultimate 3000 UHPLC coupled online to an EASYSpray ion source and a Q Exactive HF. Peptides were separated on an EASYSpray C18 column (75 μm×25 cm) heated to 50° C. using a linear gradient of 5% B to 32% B over 60 min at a flow rate of 250 nL/min and were ionized at 1.7 kv. Mobile phase A consisted of 0.1% FA in H2O and mobile phase B consisted of 0.1% FA, 2.9% H2O in ACN.
# The PRM method was controlled by a peptide inclusion list with retention time windows of 6 min for selected precursor ions.
# The PRM assay was developed and analyzed using the open-source software Skyline (Maclean et al., Bioinformatics 26(7):966-968, 2010). Summed area under the curve of 3-4 transitions per peptide was used for quantitation. Targeted peptides were normalized to host protein loading control peptides. Peptide values for each sample were scaled to the average of each peptide across all runs. The average of multiple peptides was used as the inferred value for the protein measurement when more than one peptide was quantified (Federspiel et al., PLoS Biol. 17(9):e3000437. Doi: 10.1371/journal.pbio.3000437). PRM quantitation data were graphed using the Python Seaborn and Matplotlib libraries.
# MRC5 primary human fibroblasts (HFs) (ATCC CCL-171) were used as the model system for HSV-1 and HCMV infections and were cultured in complete growth medium (DMEM supplemented with 10% fetal bovine serum and 1% penicillin-streptomycin antibiotics) at 37° C. and 5% CO2. iSLK.219 cells harboring latent KSHV (a gift from Dr. Britt Glaunsinger, University of California, Berkeley) were grown in complete growth medium supplemented with 500 μg/ml hygromycin (ThermoFisher Scientific, 10687010) at 37° C. and 5% CO2. All cells were used for experiments within a maximum of 10 passages.
# Wild type HSV-1 strain 17+ (a gift from Beate Sodeik, Hannover Medical School, Hannover, Germany) was propagated as previously described (Diner et al., 2015). Briefly, PO stocks were generated by electroporating pBAC-HSV-1 into U-2 OS cells. […] In a similar manner, wild type HCMV strain AD169 was produced from BAC electroporation into HFs and working stocks were propagated by infecting HFs at a low level. In both cases, cell-associated virus was released by sonication, combined with supernatant virus, then concentrated by ultracentrifugation (20,000 rpm, 2 hours, 4° C. with SW28 swinging bucket rotor [Beckman Coulter]) over a 10% ficoll (HSV-1) or 20% sorbitol (HCMV) cushion. Virus stock titers were determined by plaque assay for HSV-1 or tissue culture infectious dose (TCID50) for HCMV and infections were performed at a multiplicity of infection (MOI) of 3.
# 12 hours prior to virus infection or reactivation, cells were treated with either the small molecule drug or DMSO/PBS control at an equivalent volume. […] For infection cycles lasting longer than 24 hours, small molecule drugs were re-added to the cell culture medium every 24 hours. Upon collection, cells were rinsed with PBS, scraped into a microcentrifuge tube, pelleted by centrifugation, and rinsed again with PBS.
structure (smiles),measurement,setting,value
Nc1c(S(=O)(=O)c2ccccc2)c2nc3ccccc3nc2n1-c1ccc(F)cc1 [CAY10602],UL117 (P16770) protein level,"timepoint 96, L",0.3951
same,gH (P12824) protein level,"timepoint 96, L",0.2835
same,gL (P16832) protein level,"timepoint 96, L",0.2623
same,gM (P16733) protein level,"timepoint 96, L",0.2653
same,gN (P16795) protein level,"timepoint 96, L",0.3
same,IR10 (P16808) protein level,"timepoint 96, LL",0.2057
same,IR12 (P16810) protein level,"timepoint 96, LL",0.691
same,TRM3 (P16732) protein level,"timepoint 96, LL",0.1638
same,TRX1 (P16783) protein level,"timepoint 96, LL",0.107
same,TRX2 (P16728) protein level,"timepoint 96, LL",0.1423
same,UL24 (P16760) protein level,"timepoint 96, LL",0.2363
same,UL40 (P16780) protein level,"timepoint 96, LL",0.5384
same,UL47 (P16784) protein level,"timepoint 96, LL",0.2331
same,UL49 (P16786) protein level,"timepoint 96, LL",0.2651
same,UL69 (P16749) protein level,"timepoint 96, LL",0.3508
same,UL70 (P17149) protein level,"timepoint 96, LL",0.6104
same,UL83 (P06725) protein level,"timepoint 96, LL",0.1002
same,UL132 (P69338) protein level,"timepoint 96, LL",0.23
same,US15 (P09718) protein level,"timepoint 96, LL",0.4576
same,CVC2 (P16726) protein level,"timepoint 120, DE",0.2864
same,DBP (P17147) protein level,"timepoint 120, DE",1.237
same,HELI (P16736) protein level,"timepoint 120, DE",0.9924
same,IR01 (P09710) protein level,"timepoint 120, DE",0.5584
same,NEC1 (P16794) protein level,"timepoint 120, DE",0.2446
same,NEC2 (P16791) protein level,"timepoint 120, DE",0.5195
same,RIR1 (P16782) protein level,"timepoint 120, DE",0.4577
same,TRM1 (P16724) protein level,"timepoint 120, DE",0.5809
same,UL4 (P17146) protein level,"timepoint 120, DE",0.3635
same,UL26 (P16762) protein level,"timepoint 120, DE",0.7327
same,UL32 (P08318) protein level,"timepoint 120, DE",0.3617
same,UL34 (P16812) protein level,"timepoint 120, DE",0.476
same,UL35 (P16766) protein level,"timepoint 120, DE",0.2648
same,UL38 (P16779) protein level,"timepoint 120, DE",0.7917
same,UL44 (P16790) protein level,"timepoint 120, DE",0.3691
same,UL48 (P16785) protein level,"timepoint 120, DE",0.6239
same,UL54 (P08546) protein level,"timepoint 120, DE",1.076
same,UL71 (P16823) protein level,"timepoint 120, DE",0.6451
same,UL78 (P16751) protein level,"timepoint 120, DE",0.6099
same,UL84 (P16727) protein level,"timepoint 120, DE",0.5628
same,UL95 (P16801) protein level,"timepoint 120, DE",0.6017
same,UL96 (P16787) protein level,"timepoint 120, DE",0.8056
same,UL97 (P16788) protein level,"timepoint 120, DE",0.6064
same,UL98 (P16789) protein level,"timepoint 120, DE",0.7315
same,UL102 (P16827) protein level,"timepoint 120, DE",1.128
same,UL104 (P16735) protein level,"timepoint 120, DE",0.5969
same,UL112/UL113 (P17151) protein level,"timepoint 120, DE",0.6787
same,UL114 (P16769) protein level,"timepoint 120, DE",0.9011
same,UL119/UL118 (P16739) protein level,"timepoint 120, DE",0.9064
same,UL128 (P16837) protein level,"timepoint 120, DE",0.537
same,US8 (P09730) protein level,"timepoint 120, DE",0.7858
same,US9 (P09729) protein level,"timepoint 120, DE",0.8529
same,US12 (P09721) protein level,"timepoint 120, DE",0.4687
same,US13 (P09720) protein level,"timepoint 120, DE",0.889
same,US14 (P09719) protein level,"timepoint 120, DE",0.6652
same,US18 (P69334) protein level,"timepoint 120, DE",1.01
same,US22 (P09722) protein level,"timepoint 120, DE",0.7763
same,US23 (P09701) protein level,"timepoint 120, DE",0.7758
same,US24 (P09700) protein level,"timepoint 120, DE",0.8183
same,US34 (P09709) protein level,"timepoint 120, DE",0.4168
same,gB (P06473) protein level,"timepoint 120, DE",0.6582
same,IRS1 (P09715) protein level,"timepoint 120, IE",0.8786
same,TRS1 (P09695) protein level,"timepoint 120, IE",0.7933
same,UL13 (P16755) protein level,"timepoint 120, IE",0.4263
same,UL36 (P16767) protein level,"timepoint 120, IE",0.8112
same,UL37 (P16778) protein level,"timepoint 120, IE",0.8715
same,UL122 (P19893) protein level,"timepoint 120, IE",0.4332
same,UL123 (P13202) protein level,"timepoint 120, IE",0.6795
same,CVC1 (P16799) protein level,"timepoint 120, L",0.5173
same,GO (P16750) protein level,"timepoint 120, L",0.4236
same,IR11 (P16809) protein level,"timepoint 120, L",1.205
same,MCP (P16729) protein level,"timepoint 120, L",0.4497
same,SCP (Q7M6N6) protein level,"timepoint 120, L",0.3169
same,TRM2 (P16792) protein level,"timepoint 120, L",0.4883
same,UL22A (P16845) protein level,"timepoint 120, L",0.9462
same,UL25 (P16761) protein level,"timepoint 120, L",0.5081
same,UL29 (P16764) protein level,"timepoint 120, L",0.8148
same,UL30 (P16765) protein level,"timepoint 120, L",0.4064
same,UL31 (P16848) protein level,"timepoint 120, L",0.5275
same,UL43 (P16781) protein level,"timepoint 120, L",0.2294
same,UL52 (P16793) protein level,"timepoint 120, L",0.6161
same,UL76 (P16725) protein level,"timepoint 120, L",0.366
same,UL79 (P16752) protein level,"timepoint 120, L",0.3998
same,UL80 (P16753) protein level,"timepoint 120, L",0.5912
same,UL82 (P06726) protein level,"timepoint 120, L",0.5561
same,UL87 (P16730) protein level,"timepoint 120, L",0.3281
same,UL88 (P16731) protein level,"timepoint 120, L",0.6339
same,UL94 (P16800) protein level,"timepoint 120, L",0.5803
same,UL99 (P13200) protein level,"timepoint 120, L",0.4749
same,UL103 (P16734) protein level,"timepoint 120, L",0.5208
same,UL117 (P16770) protein level,"timepoint 120, L",0.5442
same,gH (P12824) protein level,"timepoint 120, L",0.5849
same,gL (P16832) protein level,"timepoint 120, L",0.5768
same,gM (P16733) protein level,"timepoint 120, L",0.6508
same,gN (P16795) protein level,"timepoint 120, L",0.6429
same,DUT (P16824) protein level,"timepoint 120, LL",0.5447
same,IR10 (P16808) protein level,"timepoint 120, LL",0.4495
same,IR12 (P16810) protein level,"timepoint 120, LL",0.797
same,TRM3 (P16732) protein level,"timepoint 120, LL",0.383
same,TRX1 (P16783) protein level,"timepoint 120, LL",0.3398
same,TRX2 (P16728) protein level,"timepoint 120, LL",0.4401
same,UL24 (P16760) protein level,"timepoint 120, LL",0.5907
same,UL40 (P16780) protein level,"timepoint 120, LL",0.5612
same,UL47 (P16784) protein level,"timepoint 120, LL",0.5287
same,UL49 (P16786) protein level,"timepoint 120, LL",0.5619
same,UL69 (P16749) protein level,"timepoint 120, LL",0.6101
same,UL70 (P17149) protein level,"timepoint 120, LL",0.846
same,UL83 (P06725) protein level,"timepoint 120, LL",0.4091
same,UL132 (P69338) protein level,"timepoint 120, LL",0.4011
same,US15 (P09718) protein level,"timepoint 120, LL",0.6187
